Test results as given in patent US20240368173A1, “TRICYCLIC GPR65 MODULATORS” (PATHIOS THERAPEUTICS LIMITED, priority 2021, published 2024).

Target: human recombinant GPR65 (Homo sapiens, UniProt Q8IYL9)
Test: Human GPR65 cAMP HTRF antagonist assay
Type: cell-based
Details: not given
Method in brief: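 1321N1 astrocytoma cells stably expressing hrGPR65, with IBMX and EDTA, were preincubated with compound 30 min at room temperature, then acid-activated at assay pH 7.2 (control pH 7.9) for 30 min. cAMP read by HTRF (665/620 nm ratio); IC50 from 4-parameter fit normalised to high/low controls.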

Sequence of human recombinant GPR65 (Q8IYL9 whole entry): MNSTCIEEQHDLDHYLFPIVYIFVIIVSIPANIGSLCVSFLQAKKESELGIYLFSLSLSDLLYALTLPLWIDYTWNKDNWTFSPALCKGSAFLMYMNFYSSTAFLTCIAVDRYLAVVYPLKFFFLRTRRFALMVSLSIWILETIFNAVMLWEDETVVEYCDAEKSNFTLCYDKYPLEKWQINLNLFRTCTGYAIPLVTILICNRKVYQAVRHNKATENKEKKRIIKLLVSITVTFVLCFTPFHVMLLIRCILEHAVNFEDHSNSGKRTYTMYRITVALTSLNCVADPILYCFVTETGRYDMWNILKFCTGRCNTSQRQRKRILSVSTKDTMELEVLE

| Compound | IC50 [µM] |
| --- | --- |
| O=C(Nc1cc(C(F)(F)F)on1)N1C2CCC1c1n[nH]c(=O)cc1C2 (racemic) [Compound 44, (±)-3-Oxo-N-(5-(trifluoromethyl)isoxazole-3-yl)-3,5,6,7,8,9-hexahydro-2H-6,9-epiminocyclohepta[c]pyridazine-10-carboxamide] | < 0.5 |
| O=C(Nc1ccc(Cl)c(Cl)c1)N1C2CCC1c1n[nH]c(=O)cc1C2 (racemic) [Compound 75, (±)-N-(3,4-Dichlorophenyl)-3-oxo-3,5,6,7,8,9-hexahydro-2H-6,9-epiminocyclohepta[c]pyridazine-10-carboxamide] | < 0.5 |
| O=C(Nc1cc(Br)c(C(F)(F)F)cc1F)N1C2CCC1c1c[nH]c(=O)nc1C2 (racemic) [Compound 17, (±)-N-(5-bromo-2-fluoro-4-(trifluoromethyl)phenyl)-2-oxo-3,5,6,7,8,9-hexahydro-2H-5,8-epiminocyclohepta[d]pyrimidine-10-carboxamide] | < 0.5 |
| O=C(Nc1ccc2nsnc2c1)N1[C@H]2CC[C@@H]1c1n[nH]c(=O)cc1C2 [Compound 186, (6S,9R)—N-(benzo[c][1,2,5]thiadiazol-5-yl)-3-oxo-3,5,6,7,8,9-hexahydro-2H-6,9-epiminocyclohepta[c]pyridazine-10-carboxamide] | 0.5 to 5 |
| O=C(Nc1cc(Cl)c(-c2cnc(F)c(F)c2)cc1F)N1[C@H]2CC[C@@H]1c1c[nH]c(=O)cc1C2 [Compound 261, (6S,9R)-N-(5-Chloro-4-(5,6-difluoropyridin-3-yl)-2-fluorophenyl)-3-oxo-3,5,6,7,8,9-hexahydro-2H-6,9-epiminocyclohepta[c]pyridine-10-carboxamide] | < 0.5 |
| O=C(Nc1cc(Cl)c(Cl)cc1F)N1[C@H]2CC[C@@H]1c1c[nH]c(=O)nc1C2 [Compound 22, (5R,8S)-N-(4,5-Dichloro-2-fluorophenyl)-2-oxo-3,5,6,7,8,9-hexahydro-2H-5,8-epiminocyclohepta[d]pyrimidine-10-carboxamide] | < 0.5 |
| O=C(Nc1cc(Cl)c(I)cc1F)N1C2CCC1c1n[nH]c(=O)cc1C2 (racemic) [Compound 74, (±)-N-(5-Chloro-2-fluoro-4-iodophenyl)-3-oxo-3,5,6,7,8,9-hexahydro-2H-6,9-epiminocyclohepta[c]pyridazine-10-carboxamide] | < 0.5 |
| O=C1c2c(ccnc2F)C2CCC1N2C(=O)Nc1cc(Cl)c(Cl)cc1F (racemic) [Compound 155, (±)—N-(4,5-Dichloro-2-fluorophenyl)-1-fluoro-9-oxo-6,7,8,9-tetrahydro-5H-5,8-epiminocyclohepta[c]pyridine-10-carboxamide] | < 0.5 |
| COc1ccc(-c2cc(F)c(NC(=O)N3[C@H]4CC[C@@H]3c3ccnc(F)c3C4)cc2F)cn1 [Compound 245, (5R,8S)-N-(2,5-Difluoro-4-(6-methoxypyridin-3-yl)phenyl)-1-fluoro-6,7,8,9-tetrahydro-5H-5,8-epiminocyclohepta[c]pyridine-10-carboxamide] | < 0.5 |
| O=C(Nc1cc(Cl)c(C(F)(F)F)cc1F)N1[C@@H]2CC[C@H]1[C@@H](F)c1c2ccnc1F [Compound 296, (5R,8S,9S)-N-(5-Chloro-2-fluoro-4-(trifluoromethyl)phenyl)-1,9-difluoro-6,7,8,9-tetrahydro-5H-5,8-epiminocyclohepta[c]pyridine-10-carboxamide] | < 0.5 |
| O=C(Nc1cc(Cl)c(C(F)(F)F)cc1F)N1[C@@H]2CC[C@H]1c1n[nH]c(=O)cc1C2 [Compound 19, (6R,9S)-N-(5-Chloro-2-fluoro-4-(trifluoromethyl)phenyl)-3-oxo-3,5,6,7,8,9-hexahydro-2H-6,9-epiminocyclohepta[c]pyridazine-10-carboxamide] | < 0.5 |
| O=C(Nc1cc(Cl)c(-c2ccc(F)nc2)cc1F)N1[C@H]2CC[C@@H]1c1n[nH]c(=O)cc1C2 [Compound 109, (6S,9R)-N-(5-Chloro-2-fluoro-4-(6-fluoropyridin-3-yl)phenyl)-3-oxo-3,5,6,7,8,9-hexahydro-2H-6,9-epiminocyclohepta[c]pyridazine-10-carboxamide] | < 0.5 |
| O=C(Nc1cc(Cl)c(-c2cc(F)cnc2F)cc1F)N1[C@H]2CC[C@@H]1c1ccnc(F)c1C2 [Compound 260, (5R,8S)-N-(5-Chloro-4-(2,5-difluoropyridin-3-yl)-2-fluorophenyl)-1-fluoro-6,7,8,9-tetrahydro-5H-5,8-epiminocyclohepta[c]pyridine-10-carboxamide] | < 0.5 |
| CC(C)Oc1ccc(-c2cc(F)c(NC(=O)N3[C@H]4CC[C@@H]3c3ccnc(F)c3C4)cc2Cl)cn1 [Compound 274, (5R,8S)-N-(5-Chloro-2-fluoro-4-(6-isopropoxypyridin-3-yl)phenyl)-1-fluoro-6,7,8,9-tetrahydro-5H-5,8-epiminocyclohepta[c]pyridine-10-carboxamide] | < 0.5 |
| O=C(Nc1cc(-c2ccc3nonc3c2)c(C(F)(F)F)cc1F)N1[C@H]2CC[C@@H]1c1ccnc(F)c1C2 [Compound 253, (5R,8S)-N-(5-(benzo[c][1,2,5]oxadiazol-5-yl)-2-fluoro-4-(trifluoromethyl)phenyl)-1-fluoro-6,7,8,9-tetrahydro-5H-5,8-epiminocyclohepta[c]pyridine-10-carboxamide] | < 0.5 |
| O=C(Nc1cc(-c2cncc(F)c2)c(C(F)(F)F)cc1F)N1[C@H]2CC[C@@H]1c1n[nH]c(=O)cc1C2 [Compound 257, (6S,9R)-N-(2-Fluoro-5-(5-fluoropyridin-3-yl)-4-(trifluoromethyl)phenyl)-3-oxo-3,5,6,7,8,9-hexahydro-2H-6,9-epiminocyclohepta[c]pyridazine-10-carboxamide] | < 0.5 |
| O=C(Nc1cc(Cl)c(-c2cnn(-c3ccncc3)c2)cc1F)N1[C@H]2CC[C@@H]1c1n[nH]c(=O)cc1C2 [Compound 145, (6S,9R)-N-(5-Chloro-2-fluoro-4-(1-(pyridin-4-yl)-1H-pyrazol-4-yl)phenyl)-3-oxo-3,5,6,7,8,9-hexahydro-2H-6,9-epiminocyclohepta[c]pyridazine-10-carboxamide] | < 0.5 |
| O=C(Nc1cc(Cl)c(-c2ccnc(F)c2)cc1F)N1[C@H]2CC[C@@H]1c1c[nH]c(=O)cc1C2 [Compound 267, (6S,9R)-N-(5-Chloro-2-fluoro-4-(2-fluoropyridin-4-yl)phenyl)-3-oxo-3,5,6,7,8,9-hexahydro-2H-6,9-epiminocyclohepta[c]pyridine-10-carboxamide] | < 0.5 |
| O=C(Nc1cc(Cl)c(Oc2ccc(F)nc2)cc1F)N1[C@H]2CC[C@@H]1c1n[nH]c(=O)cc1C2 [Compound 225, (6S,9R)—N-(5-Chloro-2-fluoro-4-((6-fluoropyridin-3-yl)oxy)phenyl)-3-oxo-3,5,6,7,8,9-hexahydro-2H-6,9-epiminocyclohepta[c]pyridazine-10-carboxamide] | < 0.5 |
| O=C(Nc1ccc(-c2nnc(C(F)(F)F)s2)cc1)N1[C@H]2CC[C@@H]1c1ccnc(F)c1C2 [Compound 66, (5R,8S)-1-Fluoro-N-(4-(5-(trifluoromethyl)-1,3,4-thiadiazol-2-yl)phenyl)-6,7,8,9-tetrahydro-5H-5,8-epiminocyclohepta[c]pyridine-10-carboxamide] | < 0.5 |
| O=C(Nc1cc(Cl)c(I)cc1F)N1[C@H]2CC[C@@H]1c1ccnc(F)c1C2 [Compound 77, (5R,8S)-N-(5-Chloro-2-fluoro-4-iodophenyl)-1-fluoro-6,7,8,9-tetrahydro-5H-5,8-epiminocyclohepta[c]pyridine-10-carboxamide] | < 0.5 |
| O=C(Nc1cc(Cl)c(-c2ccc(OC3CCCC3)nc2)cc1F)N1[C@H]2CC[C@@H]1c1n[nH]c(=O)cc1C2 [Compound 336, (6S,9R)-N-(5-Chloro-4-(6-(cyclopentyloxy)pyridin-3-yl)-2-fluorophenyl)-3-oxo-3,5,6,7,8,9-hexahydro-2H-6,9-epiminocyclohepta[c]pyridazine-10-carboxamide] | < 0.5 |
| O=C(Nc1cc(Cl)c(-c2ccc(OC3CCOC3)nc2)cc1F)N1[C@H]2CC[C@@H]1c1n[nH]c(=O)cc1C2 (stereo partly drawn) [Compound 342, (6S,9R)-N-(5-Chloro-2-fluoro-4-(6-((tetrahydrofuran-3-yl)oxy)pyridin-3-yl)phenyl)-3-oxo-3,5,6,7,8,9-hexahydro-2H-6,9-epiminocyclohepta[c]pyridazine-10-carboxamide] | < 0.5 |

Same assay, conditions: 1321N1-hrGPR65 cells, cAMP HTRF, assay pH 7.2; read-out: hGPR65 IC50 (Activity of selected compounds according to the invention)

| Compound | IC50 [µM] |
| --- | --- |
| O=C(Nc1c(F)cc(Cl)c(Cl)c1F)N1[C@H]2CC[C@@H]1c1n[nH]c(=O)cc1C2 [Compound 308, (6S,9R)-N-(3,4-Dichloro-2,6-difluorophenyl)-3-oxo-3,5,6,7,8,9-hexahydro-2H-6,9-epiminocyclohepta[c]pyridazine-10-carboxamide] | 0.5 to 5 |
| O=C(Nc1cc(Br)c(Cl)cc1F)N1[C@@H]2CC[C@H]1c1c[nH]c(=O)nc1C2 [Compound 27, (5S,8R)-N-(5-Bromo-4-chloro-2-fluorophenyl)-2-oxo-3,5,6,7,8,9-hexahydro-2H-5,8-epiminocyclohepta[d]pyrimidine-10-carboxamide] | 0.5 to 5 |
| O=C(Nc1ccc(OC2COC2)c(Cl)c1)N1[C@H]2CC[C@@H]1c1ccnc(F)c1C2 [Compound 71, (5R,8S)-N-(3-Chloro-4-(oxetan-3-yloxy)phenyl)-1-fluoro-6,7,8,9-tetrahydro-5H-5,8-epiminocyclohepta[c]pyridine-10-carboxamide] | 0.5 to 5 |
| CC1(c2ccc(NC(=O)N3[C@H]4CC[C@@H]3c3ccnc(F)c3C4)cc2)COC1 [Compound 61, (5R,8S)-1-Fluoro-N-(4-(3-methyloxetan-3-yl)phenyl)-6,7,8,9-tetrahydro-5H-5,8-epiminocyclohepta[c]pyridine-10-carboxamide] | > 5 |
| O=C(Nc1cc(Cl)c(-c2cn[nH]c2)cc1F)N1[C@H]2CC[C@@H]1c1n[nH]c(=O)cc1C2 [Compound 119, (6S,9R)-N-(5-Chloro-2-fluoro-4-(1H-pyrazol-4-yl)phenyl)-3-oxo-3,5,6,7,8,9-hexahydro-2H-6,9-epiminocyclohepta[c]pyridazine-10-carboxamide] | > 5 |
